Here are results for one molecule from the NIST ThermoML archive (doi:10.1021/je700746a).

The conditions of the data set: 298.15 K; 101.33 kPa; Liquid.

± gives the expanded uncertainty stated by the source.

Take `CC(=O)CC(C)C` [4-methylpentan-2-one]: the viscosity (usually the internal friction of a fluid under shear) is recorded as 0.56 ± 0.04 mPa·s.
